Assays:
Protein Kinase G = conditions: Rho kinase inhibitor, background statement; cited from earlier work
recombinant human PKA = target: T1, recombinant human PKA (Homo sapiens, UniProt P17612); assay: Determination of Protein Kinase A inhibition (selectivity); type: biochemical; conditions: from IC50 values
T1 construct: recombinant human PKA (residues 1-351, N-terminal His-tag); His-tag (N); purchased Invitrogen, Karlsruhe, Germany
Method in brief: (§1)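 Full-length His-tagged PKG1-beta and His-tagged PKA (residues 1-351) assayed in Tris-HCl pH 7.4 with fluorescein-labelled peptide and ATP (diluted to 3 μM and 120 μM before mixing), 60 min at 32° C. EDTA-stopped; substrate phosphorylation detected by Caliper mobility-shift separation, giving IC50 values.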

[1] = target: T2, recombinant human PKG1-beta (Homo sapiens, UniProt Q13976); assay: Determination of Protein Kinase G inhibition (selectivity); type: biochemical; conditions: from IC50 values
T2 construct: PKG1-beta (full-length, with N-terminal His-tag); His-tag (N); purchased Millipore GmbH, Schwalbach, Germany
T2 sequence (Q13976 1-686 isoform Q13976-2): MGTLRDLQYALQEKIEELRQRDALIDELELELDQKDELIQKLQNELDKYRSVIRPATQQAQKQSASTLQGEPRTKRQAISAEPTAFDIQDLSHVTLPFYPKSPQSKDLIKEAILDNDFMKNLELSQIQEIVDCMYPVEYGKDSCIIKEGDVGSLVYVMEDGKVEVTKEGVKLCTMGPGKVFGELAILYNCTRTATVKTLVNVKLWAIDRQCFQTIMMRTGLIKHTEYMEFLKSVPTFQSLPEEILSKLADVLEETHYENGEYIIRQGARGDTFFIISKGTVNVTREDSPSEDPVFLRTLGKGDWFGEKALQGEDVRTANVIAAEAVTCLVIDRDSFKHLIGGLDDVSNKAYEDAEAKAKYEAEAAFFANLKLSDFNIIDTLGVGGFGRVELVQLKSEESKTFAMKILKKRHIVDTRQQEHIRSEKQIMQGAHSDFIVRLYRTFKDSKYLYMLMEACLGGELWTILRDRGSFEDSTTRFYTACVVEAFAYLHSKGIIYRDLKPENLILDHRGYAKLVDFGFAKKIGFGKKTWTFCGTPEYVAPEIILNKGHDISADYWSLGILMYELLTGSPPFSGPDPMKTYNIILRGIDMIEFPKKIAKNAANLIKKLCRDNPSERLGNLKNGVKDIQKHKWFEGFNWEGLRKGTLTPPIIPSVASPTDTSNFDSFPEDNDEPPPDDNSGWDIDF
Method in brief: as §1

[2] = target: T3, human recombinant ROCK II (Homo sapiens, UniProt O75116); assay: Determination of Rho kinase inhibition (ROCK II, Caliper peptide phosphorylation assay); type: biochemical; conditions: respective form (salt or free base) as obtained in the examples, 60 min at 32° C.
T3 construct: recombinant human ROCK-II residues 11-552; His6 (N); purchased Millipore GmbH, Schwalbach, Germany
Method in brief: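 Enzyme: active N-terminal His6-tagged recombinant human ROCK-II, residues 11-552. Substrate: a fluorescein-labelled peptide, with ATP. IC50 values were determined.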

T3 sequence (O75116 11-552): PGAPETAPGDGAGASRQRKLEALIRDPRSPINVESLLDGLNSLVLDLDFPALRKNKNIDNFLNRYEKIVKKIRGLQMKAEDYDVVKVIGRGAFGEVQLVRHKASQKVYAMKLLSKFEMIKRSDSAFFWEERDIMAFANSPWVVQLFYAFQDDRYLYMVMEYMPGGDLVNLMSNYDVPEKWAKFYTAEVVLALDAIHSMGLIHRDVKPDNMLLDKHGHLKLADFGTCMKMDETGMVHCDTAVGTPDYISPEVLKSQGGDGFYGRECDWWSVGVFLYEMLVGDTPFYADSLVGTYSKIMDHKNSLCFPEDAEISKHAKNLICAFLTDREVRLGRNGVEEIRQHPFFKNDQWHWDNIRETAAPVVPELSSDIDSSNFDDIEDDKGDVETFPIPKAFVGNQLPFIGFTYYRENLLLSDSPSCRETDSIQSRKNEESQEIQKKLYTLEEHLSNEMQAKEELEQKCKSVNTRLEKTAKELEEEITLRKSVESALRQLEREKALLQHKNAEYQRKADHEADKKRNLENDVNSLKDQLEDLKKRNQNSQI

SMILES | Selectivity against PKA (recombinant human PKA) [fold] | Selectivity against PKG [1] [fold] | IC50 [2] [µM] | selectivity against Protein Kinase G (Protein Kinase G) [fold]
C[C@@H](N)[C@H]1CC[C@H](C(=O)Nc2ccncc2)CC1 [Example Y-27632] | – | – | – | 20
NC(c1ccccc1)C1(C2CCCC2)CCC(Oc2cc3cc[nH]c(=O)c3cc2Cl)CC1 (single isomer, unassigned) [Example 25, 6-[4-(Amino-phenyl-methyl)-4-cyclopentyl-cyclohexyloxy]-7-chloro-2H-isoquinolin-1-one] | >300 | >100 | 0.01 to 0.1 | –
CCCC1(C(N)C2CC2)CCC(Oc2cc3cc[nH]c(=O)c3cc2Cl)CC1 (single isomer, unassigned) [Example 7, 6-[4-(Amino-cyclopropyl-methyl)-4-propyl-cyclohexyloxy]-7-chloro-2H-isoquinolin-1-one] | >300 | >100 | 0.01 to 0.1 | –
CCC(N)[C@]1(CC)CC[C@H](Oc2cc3cc[nH]c(=O)c3cc2C)CC1 (stereo partly drawn) [Example 52, cis-6-[4-(1-Amino-propyl)-4-ethyl-cyclohexyloxy]-7-methyl-2H-isoquinolin-1-one] | >100 | >10 | 0.1 to 1 | –
NC(C1CC1)C1(CC2CC2)CCC(Oc2cc3cc[nH]c(=O)c3cc2Cl)CC1 (single isomer, unassigned) [Example 17, 6-[4-(Amino-cyclopropyl-methyl)-4-cyclopropylmethyl-cyclohexyloxy]-7-chloro-2H-isoquinolin-1-one] | >10 | >10 | 0.01 to 0.1 | –
CCCC(N)C1(CC2CC2)CCC(Oc2cc3cc[nH]c(=O)c3cc2Cl)CC1 (single isomer, unassigned) [Example 15, 6-[4-(1-Amino-butyl)-4-cyclopropylmethyl-cyclohexyloxy]-7-chloro-2H-isoquinolin-1-one] | >10 | >10 | 0.01 to 0.1 | –
CC[C@]1(C(C)N)CC[C@@H](Oc2cc3cc[nH]c(=O)c3cc2C)CC1 (stereo partly drawn) [Example 37, cis-6-[4-(1-Amino-ethyl)-4-ethyl-cyclohexyloxy]-7-methyl-2H-isoquinolin-1-one] | >300 | >100 | 0.01 to 0.1 | –
CCC(N)[C@]1(CC)CC[C@H](Oc2cc3cc[nH]c(=O)c3cc2F)CC1 (stereo partly drawn) [Example 50, cis-6-[4-(1-Amino-propyl)-4-ethyl-cyclohexyloxy]-7-fluoro-2H-isoquinolin-1-one] | >300 | >10 | 0.01 to 0.1 | –

The next lines start with results.

Selectivity against PKA (recombinant human PKA) [fold] | Selectivity against PKG [1] [fold] | IC50 [2] [µM] | SMILES | selectivity against Protein Kinase G (Protein Kinase G) [fold]
>1000 | >300 | 0.01 to 0.1 | CCC(N)C1(COC(C)C)CCC(Oc2cc3cc[nH]c(=O)c3cc2Cl)CC1 (single isomer, unassigned) [Example 19, 6-[4-(1-Amino-propyl)-4-isopropoxymethyl-cyclohexyloxy]-7-chloro-2H-isoquinolin-1-one] | –
>1000 | >1000 | ≤ 0.01 | CCC(N)C1(CC)CCC(Oc2cc3cc[nH]c(=O)c3cc2Cl)CC1 (single isomer, unassigned) [Example 107] | –
>300 | >300 | ≤ 0.01 | CC(C)C(N)C1(CC2CC2)CCC(Oc2cc3cc[nH]c(=O)c3cc2Cl)CC1 (single isomer, unassigned) [Example 18, 6-[4-(1-Amino-2-methyl-propyl)-4-cyclopropylmethyl-cyclohexyloxy]-7-chloro-2H-isoquinolin-1-one] | –
>1000 | >300 | ≤ 0.01 | CC[C@]1(C(N)CF)CC[C@@H](Oc2cc3cc[nH]c(=O)c3cc2Cl)CC1 (stereo partly drawn) [Example 95, cis-6-[4-(1-Amino-2-fluoro-ethyl)-4-ethyl-cyclohexyloxy]-7-chloro-2H-isoquinolin-1-one] | –

— patent US8399482B2, “6-substituted isoquinolines and isoquinolinones” (Sanofi, priority 2008, dated 2013)
